In BindingDB's records for doi:10.1021/jm00121a046 (University of Kentucky, 1989):

Experiments:
[1] = target: Prostaglandin F2-alpha receptor (Sheep); assay: Binding potency towards Prostaglandin F2 alpha receptor (competitive binding) with natural [3H]-PGF 2 alpha in ovine luteal cells (OLC)
[2] = target: Prostaglandin F2-alpha receptor (Sheep); assay: as above; remark: listed apart in the source

SMILES | IC50 [1] [nM] | IC50 [2] [µM]
[N-]=[N+]=Nc1ccc(CC[C@H](O)/C=C/[C@@H]2[C@@H](C/C=C\CCCC(=O)O)[C@@H](O)C[C@H]2O)cc1I | 350 | 
[N-]=[N+]=Nc1cc(O)cc(OC[C@H](O)/C=C/[C@@H]2[C@@H](C/C=C\CCCC(=O)O)[C@@H](O)C[C@H]2O)c1 |  | 11
[N-]=[N+]=Nc1ccc(CC[C@H](O)/C=C/[C@@H]2[C@@H](C/C=C\CCCC(=O)O)[C@@H](O)C[C@H]2O)c(O)c1 |  | 6.1
